Test results: patent US20160157482A1, “Antimicrobial Compositions Containing Carvacrol and Thymol” (Kemin Industries, Inc., priority 2013, published 2016)
Read-outs that look alike come from different tables or passages of the source.

Experiments:
[1] = system: Escherichia coli 413-1, ATCC 25922; experiment: Microtiter plate assay, growth inhibition; assay type: cell-based
Method: (§1) Stock cultures of Escherichia coli 413-1, ATCC 25922, Salmonella Enteritidis, ATCC 13076, Bacillus subtilis PB6 (Kemin Industries) and Lactobacillus johnsonii D115 (Kemin Industries) were cultured from agar plates held at 4° C. and inoculated into tubes of either Tryptic Soy Broth (TSB) or de Man, Rogosa and Sharpe (MRS) broth. The bacteria were incubated aerobically or anaerobically as appropriate at 37° C. for 20-22 h. All microbial cultures used in this work are strains maintained in an in-house culture collection.
(§2) Stock solutions of 1000 ppm each of carvacrol and thymol standards were prepared in sterile TSB to which 0.1% agar was added for stabilization of the oil:water emulsion (Rasooli et al., 2007; Burt, S. and R. Reinders. 2003. Antibacterial activity of selected plant essential oils against Escherichia coli O157:H7. Letters Appl. Microbiol. 36:162-167). Subsequent dilutions and/or combinations of the standard stock solutions were prepared in TSB to achieve the targeted inclusion level of each molecule.
(§3) Stock solutions of 1000 ppm were made of each of the HC and HT extracted oils in sterile TSB or MRS broth to which 0.1% agar was added. Subsequent dilutions and/or combinations of the extracted oil stock solutions were prepared in TSB or MRS to achieve the targeted inclusion level of each molecule.
(§4) The efficacy of carvacrol and thymol in the inhibition of microbial growth was evaluated in a microtiter plate assay measuring the optical density at 620 nm using an Optimax microtiter plate reader (Molecular Devices, Sunnyvale, Calif.). Plates were read kinetically (aerobic organisms) or endpoint (anaerobic organisms) over 20-24 h while maintaining temperature at 35° C. All results reflect the average optical density measurements of four microtiter wells. A 100 uL aliquot of a test organism (1.0E+06 cfu/mL) in sterile saline and a 100 μL aliquot of experimental treatment were dispensed into individual microtiter plate wells. Treatments prepared in TSB were used for E. coli, S. Enteritidis and PB6 while treatments prepared in MRS broth were used for L. johnsonii D115. Positive controls consisted of 100 μL of test organism in sterile saline and 100 μL of sterile TSB or MRS. Negative controls were made of 100 μL of sterile TSB or MRS and 100 μL of sterile saline (no organisms).
(§5) The inhibitory levels of carvacrol and thymol against selected microorganisms were evaluated through several formulation matrices designed to assess the individual molecules as well as combinations of the molecules. Initially, thirteen formulations were prepared according to the incomplete 4×4 matrix design in Table 1 using 0, 125, 250 and 500 ppm each of carvacrol standard and thymol standard to evaluate the inhibitory activity toward selected microorganisms. […]

[2] = system: Salmonella Enteritidis, ATCC 13076; experiment: Microtiter plate assay, growth inhibition; assay type: cell-based; details: Salmonella enterica, read-out: level needed to inhibit the growth (MIC)
Method: as §1, §2, §3, §4, §5

| Structure (SMILES) | MIC ([1]; ATCC25922, microtiter plate, OD 620 nm, 20-24 h, 35° C., read-out: level needed to inhibit the growth (MIC)) [mg/L] | MIC ([2]; microtiter plate, OD 620 nm, 20-24 h, 35° C.) [mg/L] | MIC ([1]; ATCC25922, read-out: level needed to inhibit the growth (MIC)) [mg/L] | MIC [2] [mg/L] |
| --- | --- | --- | --- | --- |
| Cc1ccc(C(C)C)c(O)c1 [thymol] | 125 to 250 | 125 to 250 |  |  |
| Cc1ccc(C(C)C)cc1O [carvacrol] |  |  | 125 to 250 | 125 to 250 |
